Measured values published in US10202361B2, “Pyridazinones as herbicides” (E I DU PONT DE NEMOURS AND COMPANY, priority 2014, dated 2019).
Like-named read-outs stand apart in the source and are kept apart here.

Legend:
Type in all cases: in vivo
[1] = tested on: barnyardgrass (Echinochloa crus-galli); assay: Test B flooded paddy test; conditions: Echinochloa crus-galli, 312 h; Flood, 125 g ai/ha; scale of 0 to 100, 0 is no effect, 100 is complete control; 13 to 15 d; read-out: Plant response rating, Barnyardgrass
In short: (§1)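 Seedlings at 2 leaves are flooded to 3 cm, compound is added to the water, and that level is kept for the whole test. Plants stay in the greenhouse 13 to 15 d before visual comparison with controls, scored 0–100 where 100 means complete control.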

[2] = tested on: ducksalad (Heteranthera limosa); assay: Test B flooded paddy test; conditions: Heteranthera limosa, 312 h; Flood, 125 g ai/ha; scale of 0 to 100, 0 is no effect, 100 is complete control; 13 to 15 d; read-out: Plant response rating, Ducksalad
In short: as §1

[3] = tested on: rice (Oryza sativa); assay: Test B flooded paddy test; conditions: Oryza sativa, 312 h; Flood, 125 g ai/ha; scale of 0 to 100, 0 is no effect, 100 is complete control; 13 to 15 d; read-out: Plant response rating, Rice
In short: as §1

[4] = tested on: sedge, umbrella (small-flower umbrella sedge, Cyperus difformis); assay: Test B flooded paddy test; conditions: Cyperus difformis, 312 h; Flood, 125 g ai/ha; scale of 0 to 100, 0 is no effect, 100 is complete control; 13 to 15 d; read-out: Plant response rating, Sedge, Umbrella
In short: as §1

[5] = tested on: barnyardgrass (Echinochloa crus-galli); assay: Test C pre-/postemergence greenhouse herbicide test; conditions: Barnyardgrass
In short: (§2)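 Seeds sown in loam soil–sand blend were treated preemergence; plants at 2 to 18 cm (1- to 4-leaf stage) in peat-based medium were treated postemergence. Test chemicals were formulated in a non-phytotoxic solvent mixture with surfactant. After 13 to 15 d in greenhouse, injury was rated visually versus controls, 0 (no effect) to 100 (complete control).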

[6] = tested on: galium (catchweed bedstraw, Galium aparine); assay: as above; conditions: Galium, read-out: Plant response rating; for pest or weed control at 31 g/ha: 31 g ai/ha; for pest or weed control at 62 g/ha: 62 g ai/ha; for pest or weed control at 125 g/ha: 125 g ai/ha; for pest or weed control at 250 g/ha: 250 g ai/ha
In short: as §2

[7] = tested on: johnsongrass (Sorghum halepense); assay: as above; conditions: Sorghum halepense, Johnsongrass, read-out: Plant response rating; for pest or weed control at 31 g/ha: 31 g ai/ha; for pest or weed control at 62 g/ha: 62 g ai/ha; for pest or weed control at 125 g/ha: 125 g ai/ha; for pest or weed control at 250 g/ha: 250 g ai/ha
In short: as §2

[8] = tested on: kochia (Kochia scoparia); assay: as above; conditions: Postemergence
In short: as §2

[9] = tested on: oat, wild (wild oat, Avena fatua); assay: as above; conditions: Postemergence
In short: as §2

[10] = tested on: ragweed (common ragweed, Ambrosia elatior); assay: as above; conditions: Ambrosia artemisiifolia, Ragweed, read-out: Plant response rating; for pest or weed control at 31 g/ha: 31 g ai/ha; for pest or weed control at 62 g/ha: 62 g ai/ha; for pest or weed control at 125 g/ha: 125 g ai/ha; for pest or weed control at 250 g/ha: 250 g ai/ha
In short: as §2

[11] = tested on: waterhemp (common waterhemp, Amaranthus rudis); assay: as above; conditions: Waterhemp
In short: as §2

[12] = tested on: chickweed (common chickweed, Stellaria media); assay: Test C postemergence greenhouse herbicide test
Excerpt: At the same time, plants selected from these crop and weed species and also barley (winter barley, Hordeum vulgare), canarygrass (Phalaris minor), windgrass (Apera spica-venti), deadnettle (henbit deadnettle, Lamium amplexicaule), and chickweed (common chickweed, Stellaria media) were planted in pots containing Redi-Earth® planting medium (Scotts Company, 14111 Scottslawn Road, Marysville, Ohio 43041) comprising spaghnum peat moss, vermiculite, wetting agent and starter nutrients and treated with postemergence applications of test chemicals formulated in the same manner. Plants ranged in height from 2 to 18 cm (1- to 4-leaf stage) for postemergence treatments. Treated plants and controls were maintained in a greenhouse for 13 to 15 d, after which time all species were compared to controls and visually evaluated. Plant response ratings, summarized in Table C, are based on a scale of 0 to 100 where 0 is no effect and 100 is complete control. A dash (-) response means no test result.

## Cc1cc(=O)n(-c2ccc(C(F)(F)F)cc2)nc1Cc1ccnc(C(F)(F)F)c1 [Compound 2, 5-methyl-2-[4-(trifluoromethyl)phenyl]-6-[[2-(trifluoromethyl)-4-pyridinyl]methyl]-3(2H)-pyridazinone]
[1]
  pest or weed control at 125 g/ha: 0%
[2]
  pest or weed control at 125 g/ha: 10%
[3]
  plant injury at 125 g/ha: 0%
[4]
  pest or weed control at 125 g/ha: 80%
[5]; Postemergence, 31 g ai/ha
  Plant response rating: 5
[5]; Postemergence, 62 g ai/ha
  Plant response rating: 10
[5]; Postemergence, 125 g ai/ha
  Plant response rating: 10
[5]; Postemergence, 250 g ai/ha
  Plant response rating: 25
[5]; Preemergence, 31 g ai/ha
  Plant response rating: 65
[5]; Preemergence, 62 g ai/ha
  Plant response rating: 70
[5]; Preemergence, 125 g ai/ha
  Plant response rating: 90
[5]; Preemergence, 250 g ai/ha
  Plant response rating: 98
[6]; post-emergence, Postemergence
  pest or weed control at 31 g/ha: 50%
  pest or weed control at 62 g/ha: 80%
  pest or weed control at 125 g/ha: 80%
  pest or weed control at 250 g/ha: 85%
[6]; pre-emergence, Preemergence
  pest or weed control at 62 g/ha: 85%
  pest or weed control at 125 g/ha: 98%
  pest or weed control at 250 g/ha: 100%
[7]; post-emergence, Postemergence
  pest or weed control at 31 g/ha: 5%
  pest or weed control at 62 g/ha: 5%
  pest or weed control at 125 g/ha: 10%
  pest or weed control at 250 g/ha: 10%
[7]; pre-emergence, Preemergence
  pest or weed control at 31 g/ha: 65%
  pest or weed control at 62 g/ha: 70%
  pest or weed control at 125 g/ha: 80%
  pest or weed control at 250 g/ha: 90%
[8]; 31 g ai/ha
  Plant response rating: 80
[8]; 62 g ai/ha
  Plant response rating: 85
[8]; 125 g ai/ha
  Plant response rating: 90
[8]; 250 g ai/ha
  Plant response rating: 90
[9]; 31 g ai/ha
  Plant response rating: 5
[9]; 62 g ai/ha
  Plant response rating: 5
[9]; 125 g ai/ha
  Plant response rating: 5
[9]; 250 g ai/ha
  Plant response rating: 5
[10]; post-emergence, Postemergence
  pest or weed control at 31 g/ha: 25%
  pest or weed control at 62 g/ha: 60%
  pest or weed control at 125 g/ha: 60%
[10]; pre-emergence, Preemergence
  pest or weed control at 31 g/ha: 15%
  pest or weed control at 62 g/ha: 60%
  pest or weed control at 125 g/ha: 60%
  pest or weed control at 250 g/ha: 60%
[11]; Postemergence, 31 g ai/ha
  Plant response rating: 75
[11]; Postemergence, 62 g ai/ha
  Plant response rating: 75
[11]; Postemergence, 125 g ai/ha
  Plant response rating: 75
[11]; Postemergence, 250 g ai/ha
  Plant response rating: 80
[11]; Preemergence, 62 g ai/ha
  Plant response rating: 100
[11]; Preemergence, 125 g ai/ha
  Plant response rating: 100
[11]; Preemergence, 250 g ai/ha
  Plant response rating: 100
[12]; 31 g ai/ha
  Plant response rating: 60
[12]; 62 g ai/ha
  Plant response rating: 70
[12]; 125 g ai/ha
  Plant response rating: 90
[12]; 250 g ai/ha
  Plant response rating: 90

## Cc1cc(Oc2ccnc(C(F)(F)F)c2)nn(-c2ccc(C(F)(F)F)cc2)c1=O [Compound 6, 4-methyl-2-[4-(trifluoromethyl)phenyl]-6-[[2-(trifluoromethyl)-4-pyridinyl]oxy]-3(2H)-pyridazinone]
[1]
  pest or weed control at 125 g/ha: 0%
[2]
  pest or weed control at 125 g/ha: 0%
[3]
  plant injury at 125 g/ha: 0%
[4]
  pest or weed control at 125 g/ha: 0%
[5]; Postemergence, 31 g ai/ha
  Plant response rating: 10
[5]; Postemergence, 62 g ai/ha
  Plant response rating: 10
[5]; Postemergence, 125 g ai/ha
  Plant response rating: 35
[5]; Postemergence, 250 g ai/ha
  Plant response rating: 65
[6]; post-emergence, Postemergence
  pest or weed control at 31 g/ha: 90%
  pest or weed control at 62 g/ha: 90%
  pest or weed control at 125 g/ha: 90%
  pest or weed control at 250 g/ha: 90%
[7]; post-emergence, Postemergence
  pest or weed control at 31 g/ha: 5%
  pest or weed control at 62 g/ha: 10%
  pest or weed control at 125 g/ha: 20%
  pest or weed control at 250 g/ha: 40%
[8]; 31 g ai/ha
  Plant response rating: 90
[8]; 62 g ai/ha
  Plant response rating: 90
[8]; 125 g ai/ha
  Plant response rating: 90
[8]; 250 g ai/ha
  Plant response rating: 95
[9]; 31 g ai/ha
  Plant response rating: 20
[9]; 62 g ai/ha
  Plant response rating: 25
[9]; 125 g ai/ha
  Plant response rating: 25
[9]; 250 g ai/ha
  Plant response rating: 50
[10]; post-emergence, Postemergence
  pest or weed control at 31 g/ha: 50%
  pest or weed control at 62 g/ha: 55%
  pest or weed control at 125 g/ha: 80%
  pest or weed control at 250 g/ha: 80%
[11]; Postemergence, 31 g ai/ha
  Plant response rating: 95
[11]; Postemergence, 62 g ai/ha
  Plant response rating: 98
[11]; Postemergence, 125 g ai/ha
  Plant response rating: 98
[11]; Postemergence, 250 g ai/ha
  Plant response rating: 98
[12]; 31 g ai/ha
  Plant response rating: 80
[12]; 62 g ai/ha
  Plant response rating: 95
[12]; 125 g ai/ha
  Plant response rating: 95
[12]; 250 g ai/ha
  Plant response rating: 98
